In patent publication US11230717B2, “Plants having increased tolerance to herbicides” (BASF SE, priority 2013, dated 2022):

Key:
Arabidopsis HPPD = biological target: T1, Arabidopsis HPPD (Arabidopsis thaliana, UniProt P93836); experiment: HPPD activity assay (homogentisic acid by HPLC), in vitro characterization; type: biochemical; settings: for Normalized tolerance index (TI): Arabidopsis HPPD Wildtype (SEQ ID: 53), reference
T1 construct: His6 (N); made in house; host or cells: E. coli BL21 (DE3)
T1 sequence (P93836 1-445): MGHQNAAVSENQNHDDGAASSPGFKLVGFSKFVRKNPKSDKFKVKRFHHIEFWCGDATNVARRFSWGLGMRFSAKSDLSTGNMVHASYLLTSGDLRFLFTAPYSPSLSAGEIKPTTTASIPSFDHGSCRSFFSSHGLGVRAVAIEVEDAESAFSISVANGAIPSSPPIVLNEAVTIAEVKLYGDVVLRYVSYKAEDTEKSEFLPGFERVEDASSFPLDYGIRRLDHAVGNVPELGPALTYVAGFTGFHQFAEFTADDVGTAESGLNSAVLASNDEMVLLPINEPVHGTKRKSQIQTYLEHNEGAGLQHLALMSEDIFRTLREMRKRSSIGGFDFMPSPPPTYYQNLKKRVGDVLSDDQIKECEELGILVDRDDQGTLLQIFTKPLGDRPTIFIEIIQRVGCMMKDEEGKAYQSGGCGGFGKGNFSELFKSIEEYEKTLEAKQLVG
Protocol: (§1) HPPD produces homogentisic acid and CO2 from 4-hydroxyphenylpyruvate (4-HPP) and O2. The activity assay for HPPD is based on the analysis of homogentisic acid by reversed phase HPLC.
(§2) The assay mixture can contain 150 mM potassium phosphate buffer pH 7.0, 50 mM L-ascorbic acid, 100 μM Catalase (Sigma-Aldrich), 1 μM FeSO4 and 0.2 units of purified HPPD enzyme in a total volume of 505 μl. 1 unit is defined as the amount of enzyme that is required to produce 1 nmol of HGA per minute at 20° C.
(§3) After a preincubation of 30 min the reaction is started by adding 4-HPP to a final concentration of 0.05 mM. The reaction is allowed to proceed for 45 min at room temperature. The reaction is stopped by the addition of 50 μl of 4.5 M phosphoric acid. The sample is filtered using a […] pore size PVDF filtration device.
(§4) 5 μl of the cleared sample is analyzed on an UPLC HSS T3 column (particle size 1.8 μm, dimensions 2,1×50 mm; Waters) by isocratic elution using 90% 20 mM NaH2PO4 pH 2.2, 10% methanol (v/v).
(§5) HGA is detected electrochemically at 750 mV (mode: DC; polarity: positive) and quantified by integrating peak areas (Empower software; Waters).
(§6) Inhibitors are dissolved in DMSO (dimethylsulfoxide) to a concentration of 0.5 mM. From this stock solution serial five-fold dilutions are prepared in DMSO, which are used in the assay. The respective inhibitor solution accounts for 1% of the assay volume. […] Activities are normalized by setting the uninhibited enzyme activity to 100%. IC50 values are calculated using non-linear regression.
(§7) Using methods which are described in the above examples or well known in the art, purified, recombinant wildtype HPPD enzymes are characterized with respect to their kinetic properties and sensitivity towards HPPD inhibiting herbicides. Apparent michaelis constants (Km) and maximal reaction velocities (Vmax) are calculated by non-linear regression with the software GraphPad Prism 5 (GraphPad Software, La Jolla, USA) using a substrate inhibition model. […] Weighted means (by standard error) of Km and IC50 values are calculated from at least three independent experiments. […] To assess the potential performance of a herbicide tolerance trait a tolerance index (TI) is calculated using the following formula: […]

[1] = biological target: T2, Hordeum HPPD (SEQ ID NO:2) (Hordeum vulgare, UniProt O48604, A164G/R146V/R147D/R148G); experiment: HPPD activity assay, in vitro characterization; type: biochemical
T2 construct: subcloned into a modified pET24D (Novagen) expression vector resulting in N-terminally His-tagged expression constructs; His (N); made in house; host or cells: E. coli BL21 (DE3)
Protocol: as §1, §2, §3, §4, §5, §6, §7

Kordia HPPD = experiment: HPPD activity assay, in vitro characterization; type: biochemical; settings: normalized to Hordeum SEQ ID NO:2
Protocol: as §1, §2, §3, §4, §5
(§8) Inhibitors are dissolved in DMSO (dimethylsulfoxide) to a concentration of 0.5 mM. From this stock solution serial five-fold dilutions are prepared in DMSO, which are used in the assay. The respective inhibitor solution accounts for 1% of the assay volume. Thus, final inhibitor concentrations range from […], respectively. Activities are normalized by setting the uninhibited enzyme activity to 100%. IC50 values are calculated using non-linear regression.
(§9) Using methods which are described in the above examples or well known in the art, purified, recombinant wildtype HPPD enzymes are characterized with respect to their kinetic properties and sensitivity towards HPPD inhibiting herbicides. Apparent michaelis constants (Km) and maximal reaction velocities (Vmax) are calculated by non-linear regression with the software GraphPad Prism 5 (GraphPad Software, La Jolla, USA) using a substrate inhibition model. Apparent kcat values are calculated from Vmax assuming 100% purity of the enzyme preparation. Weighted means (by standard error) of Km and IC50 values are calculated from at least three independent experiments. The Cheng-Prusoff equation for competitive inhibition (Cheng, Y. C.; Prusoff, W. H. Biochem Pharmacol 1973, 22, 3099-3108) is used to calculate dissociation constants (Ki). • Field performance of the HPPD enzyme, which is used as a herbicide tolerance trait, may depend not only on its lack of sensitivity towards HPPD inhibiting herbicides but also on its activity. To assess the potential performance of a herbicide tolerance trait a tolerance index (TI) is calculated using the following formula: […]
(§10) The reference SEQ ID NO:2 was included as a comparative control in a representative number of experiments and the values given in Table 12 are the average values from a number of experiments. The TI values given for various HPPD enzymes from different organisms are normalized to the value of the reference SEQ ID NO:2.

Lolium HPPD = experiment: HPPD activity assay, in vitro characterization; type: biochemical; settings: normalized to Hordeum SEQ ID NO:2
Protocol: as §1, §2, §3, §4, §5, §8, §9, §10

Rhodococcus HPPD1 = experiment: HPPD activity assay, in vitro characterization; type: biochemical; settings: normalized to Hordeum SEQ ID NO:2
Protocol: as §1, §2, §3, §4, §5, §8, §9, §10

Rhodococcus HPPD2 = experiment: HPPD activity assay, in vitro characterization; type: biochemical; settings: normalized to Hordeum SEQ ID NO:2
Protocol: as §1, §2, §3, §4, §5, §8, §9, §10

[2] = system: Zea mays HPPD mutant Seq ID 67; experiment: HPPD activity assay, in vitro characterization; type: biochemical; settings: normalized to Hordeum SEQ ID NO:2
Protocol: as §1, §2, §3, §4, §5, §8, §9, §10

[3] = system: Zea mays HPPD mutant Seq ID 69; experiment: HPPD activity assay, in vitro characterization; type: biochemical; settings: normalized to Hordeum SEQ ID NO:2
Protocol: as §1, §2, §3, §4, §5, §8, §9, §10

Picrophilus HPPD = experiment: HPPD activity assay, in vitro characterization; type: biochemical, Picrophilus torridus; settings: normalized to Hordeum SEQ ID NO:2
Protocol: as §1, §2, §3, §4, §5
(§11) Inhibitors are dissolved in DMSO (dimethylsulfoxide) to a concentration of 0.5 mM. From this stock solution serial five-fold dilutions are prepared in DMSO, which are used in the assay. […] IC50 values are calculated using non-linear regression. […]

Avena HPPD = experiment: HPPD activity assay, in vitro characterization; type: biochemical, Avena sativa; settings: normalized to Hordeum SEQ ID NO:2
Protocol: as §1, §2, §3, §4, §5, §11

[4] = Hordeum HPPD Wild-type (SEQ ID NO: 2), reference of Table 16
[5] = Hordeum HPPD, reference, normalized to SEQ ID NO:2

T2 sequence (O48604 whole entry R146V/R147D/R148G/A164G): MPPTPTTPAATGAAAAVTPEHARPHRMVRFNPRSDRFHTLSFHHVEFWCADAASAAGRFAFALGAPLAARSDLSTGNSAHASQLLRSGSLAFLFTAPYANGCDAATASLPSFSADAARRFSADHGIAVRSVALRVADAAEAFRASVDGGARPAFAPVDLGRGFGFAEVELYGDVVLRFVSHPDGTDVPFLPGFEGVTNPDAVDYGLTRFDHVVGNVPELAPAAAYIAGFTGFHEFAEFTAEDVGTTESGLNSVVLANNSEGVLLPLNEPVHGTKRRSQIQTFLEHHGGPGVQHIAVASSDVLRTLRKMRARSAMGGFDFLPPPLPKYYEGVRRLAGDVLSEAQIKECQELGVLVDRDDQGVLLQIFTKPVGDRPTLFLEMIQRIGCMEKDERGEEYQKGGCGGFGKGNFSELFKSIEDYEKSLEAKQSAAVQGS

Row | Compound | Ki (Arabidopsis HPPD) [nM] | Normalized tolerance index (TI) (Arabidopsis HPPD) | TI (tolerance index) (Arabidopsis HPPD; Arabidopsis HPPD, not normalized) | Ki [1] [nM] | Normalized tolerance index (TI) [1, 4] | Normalized tolerance index (TI) [1, 5] | TI (tolerance index) ([1]; Hordeum HPPD, not normalized) | Normalized tolerance index (TI) (Kordia HPPD) | Normalized tolerance index (TI) (Lolium HPPD) | Normalized tolerance index (TI) (Rhodococcus HPPD1) | Normalized tolerance index (TI) (Rhodococcus HPPD2) | Normalized tolerance index (TI) [2] | Normalized tolerance index (TI) [3] | Normalized tolerance index (TI) (Picrophilus HPPD) | Normalized tolerance index (TI) (Avena HPPD)
1 | Cn1nnnc1NC(=O)c1c(F)cc(Cl)c(S(C)(=O)=O)c1Cl [Inhibitor 1, 2,4-dichloro-6-fluoro-3-methylsulfonyl-N-(1-methyltetrazol-5-yl)benzamide] | 15 | 1 | 15E−3 | 3.7 | 1 | 1 | 1.6E−3 | 1.2 | 4.2 | 2.8 | 2.8 | 5 | 1.4 | 2.1 | 2.8
2 | CSc1c(Cl)cc(F)c(C(=O)Nc2ncnn2C)c1Cl [Inhibitor 3, 2,4-dichloro-6-fluoro-3-methylsulfanyl-N-(2-methyl-1,2,4-triazol-3-yl)benzamide] | – | 1 | – | – | 1 | 1 | – | 3.1 | 1.7 | 0.4 | 12.5 | 3.8 | 0.7 | 0.7 | 2.8
